Laboratory results taken from article PMC4476799, “Englerin A Agonizes the TRPC4/C5 Cation Channels to Inhibit Tumor Cell Line Proliferation” (PLoS ONE, 2015).
Like-named read-outs stand apart in the source and are kept apart here.

Test system: cancer cell lines from the cancer cell line encyclopedia (CCLE)
Test: Cell line profiling (CLiP) proliferation experiment
Assay type: cell-based
Details: for IC50: read-out: Crossing Point; for EC50: read-out: Inflection Point
Method: Compound profiling experiment and data analysis was performed as previously described. Data was imported and plotted using the Tibco Spotfire DXP application. Lines were categorized as sensitive, intermediate and refractory as follows: Amax<-40 & Inflection Point <2 ~ Sensitive, Amax>-20 & Inflection Point >10 ~ Refractory, all else were called Intermediate. Cancer Cell line HG-U133 Plus 2 data was processed and normalized as described. […] Five sets of refractory cell lines were generated from the pool of refractory cell lines trying to match the lineage composition of the set of sensitive cell lines. The limma package was used as previously described to perform the statistical comparison.

[1] = HT115, cell line HT115, large_intestine
[2] = Homo sapiens, 8-MG-BA, cell line 8-MG-BA, central_nervous_system, astrocytoma_Grade_IV
[3] = Homo sapiens, 769-P, cell line 769-P, kidney, clear_cell_renal_cell_carcinoma
[4] = Homo sapiens, A101D, A101D cells
[5] = Homo sapiens, A101D, cell line A101D, skin, NS
[6] = Homo sapiens, A204, cell line A-204, soft_tissue, NS
[7] = Homo sapiens, A2780, cell line A2780, ovary, adenocarcinoma
[8] = Homo sapiens, ABC-1, ABC-1 cells
[9] = Homo sapiens, ABC-1, cell line ABC-1, lung, non_small_cell_carcinoma
[10] = Homo sapiens, AMO1, cell line AMO-1, haematopoietic_and_lymphoid_tissue, plasma_cell_myeloma
[11] = Homo sapiens, BFTC-909, cell line BFTC-909, kidney, NS
[12] = Homo sapiens, BL-41, cell line BL-41, haematopoietic_and_lymphoid_tissue, Burkitt_lymphoma
[13] = Homo sapiens, BV-173, cell line BV-173, haematopoietic_and_lymphoid_tissue, blast_phase_chronic_myeloid_leukaemia
[14] = Homo sapiens, CAKI-1, cell line Caki-1, kidney, clear_cell_renal_cell_carcinoma
[15] = Homo sapiens, CAL-54, CAL-54, kidney, renal_cell_carcinoma
[16] = Homo sapiens, CAL-54, CAL-54 cells
[17] = Homo sapiens, CAL-85-1, CAL-85-1, breast, NS
[18] = Homo sapiens, CAL-85-1, CAL-85-1 cells
[19] = Homo sapiens, CAL-120, cell line CAL-120, breast, NS
[20] = Homo sapiens, CAPAN-1, Capan-1, pancreas, ductal_carcinoma
[21] = Homo sapiens, CFPAC-1, CFPAC-1, pancreas, ductal_carcinoma

For `CC(C)[C@@]12C[C@@H](O)[C@@](C)(O1)[C@@H]1CC[C@@H](C)[C@H]1[C@@H]2OC(=O)/C=C/c1ccccc1` [Englerin B], the IC50 (HEC-50B, cell line HEC-50B) was > 30 µM, the IC50 (HEC-251, cell line HEC-251, endometrium) was > 30 µM and the IC50 (HEC-251, cell line HEC-251) was > 30 µM. The IC50 (HEY A8, cell line Hey-A8, ovary) was > 30 µM, the IC50 (HEY A8, cell line Hey-A8) was > 30 µM and the IC50 [1] was 19.2 µM. For the same molecule, the EC50 [1] was 12.3 µM, the IC50 [2] was 26.5 µM and the EC50 [2] was 15.8 µM. For the same molecule, the IC50 (Homo sapiens, 22Rv1, cell line 22Rv1, prostate, NS) was 27.2 µM, the IC50 (Homo sapiens, 769-P, 769-P (kidney)) was > 30 µM and the IC50 [3] was > 30 µM. The EC50 [3] was 20.5 µM, the IC50 (Homo sapiens, 786-0, cell line 786-O, kidney, clear_cell_renal_cell_carcinoma) was > 30 µM and the IC50 (Homo sapiens, 786-0, cell line 786-O) was > 30 µM. For the same molecule, the IC50 (Homo sapiens, 1321-N1, cell line 1321N1 (central_nervous_system, astrocytoma)) was > 30 µM, the IC50 (Homo sapiens, 1321-N1, cell line 1321N1, central_nervous_system, astrocytoma) was > 30 µM and the IC50 (Homo sapiens, 8305C, 8305C (thyroid)) was > 30 µM. For the same molecule, the IC50 (Homo sapiens, 8305C, cell line 8305C, thyroid, anaplastic_carcinoma) was > 30 µM, the IC50 [4] was > 30 µM and the EC50 [4] was 19.2 µM. For the same molecule, the IC50 [5] was > 30 µM, the EC50 [5] was 19.2 µM and the IC50 (Homo sapiens, A 172, cell line A172, central_nervous_system, astrocytoma_Grade_IV) was > 30 µM. The IC50 (Homo sapiens, A 172, cell line A172) was > 30 µM, the IC50 (Homo sapiens, A204, cell line A-204) was > 30 µM and the IC50 [6] was > 30 µM. It also gave an EC50 [6] of 17.4 µM, an IC50 (Homo sapiens, A253, cell line A-253, salivary_gland, mucoepidermoid_carcinoma) of 14.7 µM and an IC50 (Homo sapiens, A498, cell line A-498, kidney, renal_cell_carcinoma) of 12.5 µM. For the same molecule, the IC50 (Homo sapiens, A549, cell line A549, lung, adenocarcinoma) was 23.2 µM, the IC50 (Homo sapiens, A673, A-673 cells) was > 30 µM and the IC50 (Homo sapiens, A673, cell line A-673, bone, NS) was > 30 µM. The IC50 (Homo sapiens, A2058, cell line A2058, skin, NS) was 18.5 µM, the EC50 (Homo sapiens, A2780, A2780 cells) was 12.1 µM and the IC50 [7] was 14.9 µM. The EC50 [7] was 12.1 µM, the IC50 (Homo sapiens, A-375, A-375 cells) was > 30 µM and the IC50 (Homo sapiens, A-375, cell line A-375, skin, NS) was > 30 µM. The IC50 [8] was > 30 µM, the EC50 [8] was 23.7 µM and the IC50 [9] was > 30 µM. The EC50 [9] was 23.7 µM, the IC50 (Homo sapiens, ACHN, ACHN cells) was > 30 µM and the IC50 (Homo sapiens, ACHN, cell line ACHN, kidney, renal_cell_carcinoma) was > 30 µM. For the same molecule, the EC50 (Homo sapiens, AMO1, AMO-1 cells) was 12.2 µM, the IC50 [10] was 13.2 µM and the EC50 [10] was 12.2 µM. The IC50 (Homo sapiens, AN3-CA, cell line AN3 CA, endometrium, adenocarcinoma) was 21.1 µM, the IC50 (Homo sapiens, AN3-CA, cell line AN3 CA) was 21.1 µM and the IC50 (Homo sapiens, AU565, cell line AU565, breast, NS) was 20.5 µM. For the same molecule, the IC50 [11] was > 30 µM, the EC50 [11] was 0.1 µM and the IC50 (Homo sapiens, BFTC-909, cell line BFTC-909) was > 30 µM. The EC50 (Homo sapiens, BL-41, BL-41 cells) was 16.6 µM, the IC50 [12] was 17.2 µM and the EC50 [12] was 16.6 µM. For the same molecule, the IC50 (Homo sapiens, BT-20, BT-20 cells) was > 30 µM, the IC50 (Homo sapiens, BT-20, cell line BT-20, breast, ductal_carcinoma) was > 30 µM and the IC50 (Homo sapiens, BT-549, cell line BT-549, breast, ductal_carcinoma) was 19.5 µM. It also gave an EC50 (Homo sapiens, BV-173, BV-173 cells) of 12.5 µM, an IC50 [13] of 12.8 µM and an EC50 [13] of 12.5 µM. For the same molecule, the IC50 (Homo sapiens, BXPC-3, cell line BxPC-3, pancreas, ductal_carcinoma) was 26.1 µM, the IC50 (Homo sapiens, C32, C32 cells) was > 30 µM and the IC50 (Homo sapiens, CAKI-1, Caki-1 (kidney)) was > 30 µM. For the same molecule, the IC50 [14] was > 30 µM, the EC50 [14] was 13.3 µM and the IC50 (Homo sapiens, CAKI-2, Caki-2 (kidney)) was > 30 µM. The IC50 (Homo sapiens, CAKI-2, cell line Caki-2, kidney, clear_cell_renal_cell_carcinoma) was > 30 µM, the IC50 (Homo sapiens, CAL-51, CAL-51 cells) was > 30 µM and the IC50 (Homo sapiens, CAL-51, cell line CAL-51, breast, NS) was > 30 µM. The IC50 [15] was > 30 µM, the EC50 [15] was 15.7 µM and the IC50 [16] was > 30 µM. For the same molecule, the EC50 [16] was 15.7 µM, the IC50 [17] was > 30 µM and the EC50 [17] was 27.8 µM. The IC50 [18] was > 30 µM, the EC50 [18] was 27.8 µM and the EC50 (Homo sapiens, CAL-120, CAL-120 cells) was 11.6 µM. For the same molecule, the IC50 [19] was 22.3 µM, the EC50 [19] was 11.6 µM and the IC50 (Homo sapiens, CAMA-1, CAMA-1 (breast)) was > 30 µM. The IC50 (Homo sapiens, CAMA-1, CAMA-1, breast, NS) was > 30 µM, the IC50 (Homo sapiens, CAPAN-1, Capan-1 (pancreas)) was > 30 µM and the IC50 [20] was > 30 µM. For the same molecule, the EC50 [20] was 3.35 µM, the IC50 (Homo sapiens, CCRF-CEM, CCRF-CEM cells) was > 30 µM and the IC50 (Homo sapiens, CCRF-CEM, haematopoietic_and_lymphoid_tissue, acute_lymphoblastic_T_cell_leukaemia) was > 30 µM. It also gave an IC50 [21] of 29.7 µM and an EC50 [21] of 12.7 µM.
